From PMC9780888, “4-Isobutylmethcathinone—A Novel Synthetic Cathinone with High In Vitro Cytotoxicity and Strong Receptor Binding Preference of Enantiomers” (Pharmaceuticals, 2022)
Counter-ions that a name gives are not always drawn.

Biological target: T1, dopamine receptor DAR3 (Homo sapiens, UniProt P35462)
T1 construct: host or cells: HTLA (HEK 293-derived)
Assay: PRESTO-Tango β-arrestin 2 recruitment assay, DAR3
Assay type: cell-based
Conditions: for increase in RLU compared to the control: DAR3, 500 nM
Excerpt: However, binding to a specific receptor/transporter and, thus, the mechanism of action of a given cathinone always depends on the specific structure of the evaluated compound [37]. In this study, the binding activity of IBMcat and its enantiomers was verified by PRESTO-Tango (parallel receptor expression and screening via transcriptional output, with transcriptional activation following arrestin-2 translocation) assay using the HTLA cell line stably producing β-arrestin-2 in a fusion with TEV and luciferase production driven by tTA. For this purpose, the HTLA cells were transiently transfected with plasmid DNA encoding the dopamine receptors type 1-4 (DAR1-4), which also contain the TEV protease cleavage site followed by tTA at the 3’-end (DAR1-Tango, DAR2-Tango, DAR3-Tango, DAR4-Tango). In the case of the receptor activation by a ligand, in transfected cells, the receptor is desensitized by β-arrestin fused to TEV protease. This brings the TEV protease close to the site that specifically cleaves and, thus, the transcription factor can be cleaved. The transcription factor then translocates to the cell nucleus, in which it triggers the transcription of the target gene for luciferase production which can be determined by the light emitted from luciferin conversion to oxyluciferin. Here, the pronounced luminescence was recorded for all DAR1-4 types in HTLA cells treated with IBMCat and its enantiomers (Figure 8).
The HTLA cell line was used for the PRESTO-Tango β-arrestin recruitment assay. […]
The transfected HTLA cells were incubated for 24 h, and then 1 × 10^4 cells were seeded per well of a white 96-well clear bottom plate (Brand, Germany) in 40 μL of DMEM with 1% charcoal-stripped FBS (Thermo Fisher Scientific, USA). […] After 5 min., the luminescence was measured using a multi-mode microplate reader SpectraMax iD5 (Molecular Devices, San Jose, CA, USA) measuring the entire wavelength spectrum. All samples were measured in quadruplicates. The data were evaluated by Prism 7 software (GraphPad, San Jose, CA, USA).

T1 sequence (P35462 whole entry): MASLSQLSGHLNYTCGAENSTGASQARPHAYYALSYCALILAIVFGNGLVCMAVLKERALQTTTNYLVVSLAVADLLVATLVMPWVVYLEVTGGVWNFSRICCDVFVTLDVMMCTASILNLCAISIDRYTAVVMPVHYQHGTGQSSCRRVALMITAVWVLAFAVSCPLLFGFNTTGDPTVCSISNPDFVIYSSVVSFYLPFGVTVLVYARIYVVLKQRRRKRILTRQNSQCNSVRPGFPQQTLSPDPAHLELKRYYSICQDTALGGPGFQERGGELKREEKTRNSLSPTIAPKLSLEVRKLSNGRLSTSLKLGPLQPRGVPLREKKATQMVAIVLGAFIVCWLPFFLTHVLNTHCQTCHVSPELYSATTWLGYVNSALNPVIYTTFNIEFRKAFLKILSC

## CNC(C)C(=O)c1ccc(CC(C)C)cc1.Cl (stereo not drawn) [IBMcat, 4-isobutylmethcathinone hydrochloride]
  increase in RLU compared to the control: 5 fold

## CN[C@H](C)C(=O)c1ccc(CC(C)C)cc1 [R-IBMCat]
0-500 nM
  effect on DAR3-expressing cells: no effect

## CN[C@@H](C)C(=O)c1ccc(CC(C)C)cc1 [S-IBMCat, (S)-4-isobutylmethcathinone hydrochloride]
  increase in RLU compared to the control: 6.5 fold
